Earlier results, collected in the PKSmart pharmacokinetics tables (Seal et al. 2025).

Experiments:
[1] = Lombardo et al. 2013, J Clin Pharmacol 53:178, doi 10.1177/0091270012440282; conditions: for Vd / clearance: in vivo, iv; for fraction unbound: plasma
[2] = not given per row; by the article one of three: Lombardo et al. 2013, J Clin Pharmacol 53:178, doi 10.1177/0091270012440282; 'New Drugs at FDA', novel drug approvals for 2021 and 2022 (the article's reference 43); Yap, Li, Chen 2006, J Mol Graph Model 24:383, doi 10.1016; conditions: human

Compound	Vd ([1]; rat)	clearance ([1]; rat)	Vd ([2]; in vivo)	clearance ([2]; in vivo)	further results
[H]/N=C(/N=C(N)N)N(C)C	0.54 L/kg	16.8 mL/min/kg	0.64 L/kg	7.4 mL/min/kg	
O=c1ncnc2[nH][nH]cc1-2			0.58 L/kg		Vd ([1]; dog): 0.16 L/kg
CCCn1c(=O)[nH]c(=O)c2[nH]cnc21	0.27 L/kg	12 mL/min/kg		4.16 mL/min/kg	Vd ([1]; dog): 0.64 L/kg; clearance ([1]; dog): 2.4 mL/min/kg; fraction unbound ([1]; dog): 0.61; fraction unbound ([1]; rat): 0.19
C/N=C1/CN(O)C(c2ccccc2)=c2cc(Cl)ccc2=N1	1.3 L/kg	7.8 mL/min/kg	0.25 L/kg		fraction unbound ([1]; rat): 0.15
COCCOCC(CC1(C(=O)NC2CCC(C(=O)O)CC2)CCCC1)C(=O)O (stereo not given)		15 mL/min/kg	0.25 L/kg	2.3 mL/min/kg	clearance ([1]; dog): 5.8 mL/min/kg; fraction unbound ([1]; rat): 0.23
O=C1C=CC=CC1=C1NC(=C2C=CC=CC2=O)N(c2ccc(C(=O)O)cc2)N1	0.46 L/kg	6.2 mL/min/kg	0.2 L/kg	0.84 mL/min/kg	
CN(C)C1C(=O)C(C(N)=O)=C(O)[C@@]2(O)C(=O)C3=C(O)c4c(O)cccc4[C@@](C)(O)[C@H]3[C@H](O)[C@@H]12 (stereo not given in full)			1.7 L/kg	2 mL/min/kg	Vd ([1]; dog): 1.01 L/kg; clearance ([1]; dog): 1.47 mL/min/kg
COc1ccccc1Oc1c(NS(=O)(=O)c2ccc(C(C)C)cn2)nc(-c2ccnc(-c3nn[nH]n3)c2)nc1OCCO	0.27 L/kg	4.3 mL/min/kg		9.05 mL/min/kg	Vd ([1]; monkey): 0.21 L/kg; clearance ([1]; monkey): 15.6 mL/min/kg
O=C(O)C1=C(C[n+]2ccc(CCS(=O)(=O)[O-])cc2)CS[C@@H]2C(NC(=O)C(NC(=O)c3nc[nH]c3C(=O)O)c3ccccc3)C(=O)N12 (stereo not given in full)			0.21 L/kg	1.7 mL/min/kg	Vd ([1]; dog): 0.2 L/kg; clearance ([1]; dog): 0.6 mL/min/kg; fraction unbound ([1]; dog): 0.07; Vd ([1]; monkey): 0.3 L/kg; clearance ([1]; monkey): 3 mL/min/kg
[2H]C([2H])([2H])C([2H])([2H])C(C)n1ncn(-c2ccc(N3CCN(c4ccc(OC[C@H]5CO[C@](Cn6cncn6)(c6ccc(Cl)cc6Cl)O5)cc4)CC3)cc2)c1=O (stereo not given in full)	5.07 L/kg	9.16 mL/min/kg	7.4 L/kg	5.1 mL/min/kg	fraction unbound ([1]; rat): 0.9
CC(C)(C)S(=O)(=O)CC(Cc1ccccc1)C(=O)NC(Cc1cnc[nH]1)C(=O)N[C@@H](CC1CCCCC1)[C@@H](O)[C@@H](O)C1CC1 (stereo not given in full)	4.4 L/kg	119 mL/min/kg	0.77 L/kg	11.6 mL/min/kg	Vd ([1]; dog): 1.52 L/kg; clearance ([1]; dog): 24.7 mL/min/kg; fraction unbound ([1]; dog): 0.0802; Vd ([1]; monkey): 1.7 L/kg; clearance ([1]; monkey): 20 mL/min/kg; fraction unbound ([1]; monkey): 0.167; fraction unbound ([1]; rat): 0.053
CON=C(C(=O)NC1C(=O)N2C(C(=O)O)=C(CSc3nc(=O)c(=O)[nH]n3C)CS[C@H]12)c1csc(N)n1 (stereo not given in full)	1 L/kg	20 mL/min/kg	0.09 L/kg	0.245 mL/min/kg	Vd ([1]; dog): 0.25 L/kg; clearance ([1]; dog): 3.95 mL/min/kg; fraction unbound ([1]; dog): 0.717; Vd ([1]; monkey): 0.11 L/kg; clearance ([1]; monkey): 0.19 mL/min/kg; fraction unbound ([1]; monkey): 0.0487; fraction unbound ([1]; rat): 0.071
CON=C(C(=O)NC1C(=O)N2C(C(=O)[O-])=C(Cn3cc[n+]4ncccc34)CS[C@H]12)c1nsc(N)n1 (stereo not given in full)	0.2 L/kg	9.4 mL/min/kg	0.24 L/kg	2.1 mL/min/kg	Vd ([1]; dog): 0.2 L/kg; clearance ([1]; dog): 3 mL/min/kg; fraction unbound ([1]; dog): 0.9; Vd ([1]; monkey): 0.2 L/kg; clearance ([1]; monkey): 1.9 mL/min/kg; fraction unbound ([1]; monkey): 0.9; fraction unbound ([1]; rat): 0.93
CNC(C)C1CCC(N)C(OC2C(N)CC(N)C(OC3OCC(C)(O)C(NC)C3O)C2O)O1 (stereo not given)	0.33 L/kg	7.8 mL/min/kg		1 mL/min/kg	Vd ([1]; dog): 0.33 L/kg; clearance ([1]; dog): 2.1 mL/min/kg
NNc1nncc2ccccc12	2.76 L/kg	139 mL/min/kg	1.5 L/kg	70.5 mL/min/kg	fraction unbound ([1]; dog): 0.29
COC(=O)C(c1ccccc1)C1CCCCN1C(=O)OC[n+]1cccc(C(=O)NC(CO)C(=O)[O-])c1 (stereo not given)			29.3 L/kg	60 mL/min/kg	half-life ([2]; in vivo): 5.7 h; fraction unbound ([2]; plasma): 0.44
CC(C)NC[C@@H](O)COc1cccc2ccccc12				13.7 mL/min/kg	

Compound	Vd ([1]; rat)	clearance ([1]; rat)	Vd ([2]; in vivo)	clearance ([2]; in vivo)	further results
C[C@@H](O[C@H]1OCCN(Cc2nc(=O)[nH][nH]2)[C@H]1c1ccc(F)cc1)c1cc(C(F)(F)F)cc(C(F)(F)F)c1	3.2 L/kg		0.94 L/kg		Vd ([1]; dog): 1 L/kg; fraction unbound ([1]; dog): 0.0009; fraction unbound ([1]; rat): 0.002
COc1ccc2c(c1)N[C@@H]([S@@+](O)Cc1ncc(C)c(OC)c1C)N2				3.81 mL/min/kg	
O=[P@@]1(NCCCl)OCCCN1CCCl				1.23 mL/min/kg	
COC(=O)C(c1ccccc1)[C@@H]1CCCCN1 (stereo not given in full)				9.44 mL/min/kg	
CON=C(C(=O)NC1C(=O)N2C(C(=O)[O-])=C(C[n+]3cccc4c3CCC4)CS[C@@H]12)c1csc(N)n1 (stereo not given in full)				1.98 mL/min/kg	
CNC[C@@H](O)c1cccc(O)c1				29.9 mL/min/kg	
C[C@H](CCc1ccccc1)NC[C@@H](O)c1ccc(O)c(C(N)=O)c1				28.1 mL/min/kg	
CCC[C@H]1CC(C(=O)N[C@@H]([C@H]2O[C@@H](SC)[C@H](O)[C@@H](O)[C@@H]2O)[C@H](C)O)N(C)C1 (stereo not given in full)				1.98 mL/min/kg	
Cc1c(OCC(F)(F)F)ccnc1C[S@@+](O)c1nc2ccccc2[n-]1				6.23 mL/min/kg	
CNCC[C@H](Oc1ccc(C(F)(F)F)cc1)c1ccccc1				9.6 mL/min/kg	
C[C@H](NCCC(c1ccccc1)c1ccccc1)c1ccccc1				20 mL/min/kg	
N=C=N				20 mL/min/kg	
OC[C@H]1O[C@@H](n2cnc3c2N=CNC[C@@H]3O)CC1O (stereo not given in full)				1.68 mL/min/kg	
CC1(C)S[C@H]2C(NC(=O)C(NC(=O)N3CCN(S(C)(=O)=O)C3=O)c3ccccc3)C(=O)N2C1C(=O)O (stereo not given in full)				2.71 mL/min/kg	
COC(=O)C1C=C2CC(=O)CC[C@]2(C)[C@@]23O[C@H]2C[C@@]2(C)[C@H](CC[C@]24CCC(=O)O4)[C@@H]13 (stereo not given in full)				2.38 mL/min/kg	
C=C1C[C@@H]2C(CC[C@]3(C)C(=O)CC[C@@H]23)[C@]2(C)C=CC(=O)C=C12 (stereo not given in full)				145 mL/min/kg	
